Measured values published in patent US20260001928A1 (CORTERIA PHARMACEUTICALS, priority 2022, published 2026).
*1 amine or outer side, *2 acyl side, *3 side chain or, on linkers, in order; H or OH if unused. Where a SMILES comes first, the peptide text is derived from it. Side-chain parts run from the residue outwards. [ ]: non-standard residue; d: D form. The star is where a group is joined. C20 diacid = O=C(O)CCCCCCCCCCCCCCCCCCC(=O)*; C18 diacid = O=C(O)CCCCCCCCCCCCCCCCC(=O)*; γGlu = O=C(O)[C@H](CCC(=O)[*:2])N[*:1]; Thp = NC1(C(=O)O)CCOCC1; AEEA = NCCOCCOCC(=O)O; Aib = CC(C)(N)C(=O)O

Key:
[1] = target: T1, human CRF2a receptor (Homo sapiens, UniProt Q13324); assay: Activity at human CRF2a receptor, cAMP functional assay in TeloHEAC cells; assay type: cell-based; conditions: TeloHEAC cells stably expressing human CRF2a receptor, relative to urocortin 2 (100 nM = 100%)
T1 construct: expressed in transfected cells; host or cells: TeloHEAC cells
T1 sequence (Q13324 1-411): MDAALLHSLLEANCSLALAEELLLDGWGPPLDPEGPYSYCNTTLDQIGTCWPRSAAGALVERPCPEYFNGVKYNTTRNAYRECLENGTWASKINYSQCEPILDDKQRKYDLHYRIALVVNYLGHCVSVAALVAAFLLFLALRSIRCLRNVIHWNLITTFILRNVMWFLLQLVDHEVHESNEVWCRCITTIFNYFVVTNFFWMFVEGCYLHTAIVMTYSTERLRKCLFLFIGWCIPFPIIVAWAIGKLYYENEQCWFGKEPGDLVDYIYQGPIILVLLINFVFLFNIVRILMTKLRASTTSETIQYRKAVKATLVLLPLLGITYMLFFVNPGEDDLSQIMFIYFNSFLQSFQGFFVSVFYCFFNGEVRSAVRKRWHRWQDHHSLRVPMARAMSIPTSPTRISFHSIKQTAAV
Procedure, shortened: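 TeloHEAC cells stably expressing human CRF2a (10000 cells/well, suspended in HBSS/20 mM HEPES with 2 mM IBMX) were exposed to compounds for 30 min at 37 °C. cAMP was read as the 665/620 nm fluorescence ratio after 1 h at room temperature. EC50 was derived relative to 100 nM urocortin 2, set as 100%.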

[2] = target: T2, CFR1R receptor (Homo sapiens, UniProt P34998); assay: Activity at anti-target CFR1R receptor, cAMP assay in CRF1R-overexpression CHO-K1 cells; assay type: cell-based; conditions: 100% = Sauvagine at 100 nM; for EC50: cAMP
T2 construct: host or cells: CHO-K1 (clone 2)
T2 sequence (P34998 24-415): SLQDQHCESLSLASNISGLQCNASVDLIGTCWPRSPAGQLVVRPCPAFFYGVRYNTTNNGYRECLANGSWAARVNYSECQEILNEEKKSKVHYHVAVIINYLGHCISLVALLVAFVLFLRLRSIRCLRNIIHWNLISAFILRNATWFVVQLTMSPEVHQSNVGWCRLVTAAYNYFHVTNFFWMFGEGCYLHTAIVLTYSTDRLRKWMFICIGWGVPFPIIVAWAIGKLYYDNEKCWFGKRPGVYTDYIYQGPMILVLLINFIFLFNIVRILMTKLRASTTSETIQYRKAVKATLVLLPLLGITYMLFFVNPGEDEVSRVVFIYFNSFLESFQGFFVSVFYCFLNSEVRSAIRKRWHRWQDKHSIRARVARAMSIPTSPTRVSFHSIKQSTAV
Procedure, shortened: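 The method mirrors that used with TeloHAEC cells. Here, thawed clone 2 cells seeded at 4000 cells/well are tested, and 100 nM Sauvagine sets the top of the activation scale.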

[3] = In vitro subcutaneous tissue supernatant (SCts) stability and metabolite identification, rat; assay type: in vitro ADME; design: remaining at 2 h: dose or concentration left out as unconfirmed; conditions: male, Sprague Dawley; rat subcutaneous tissue supernatant (SCts), 37° C, 2 h
[4] = Chemical stability in buffer (pH 7.4 / pH 4.5), % purity loss; assay type: physicochemical; conditions: 40° C. vs 5° C., 14 or 28 days; for Buffer stability pH 7.4 % purity loss: 100 mM phosphate buffer pH 7.4
Procedure, shortened: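 LC-UV gave % loss after 14 or 28 days of storage at 5 °C or 40 °C. Samples were diluted supernatants from compound incubated 1 h at room temperature at 10 mg/mL target, in 100 mM acetate pH 4.5 or 100 mM phosphate pH 7.4.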

[5] = system: Sprague Dawley rats; assay: Effect on systolic blood pressure, telemetry in Sprague Dawley rats; assay type: in vivo, rat; conditions: 0.1 mg/kg SC; for Systolic blood pressure (Mean) % change from baseline, 8 h / Systolic blood pressure (Mean) % change from baseline, 12 h / Systolic blood pressure (Mean) % change from baseline, 24 h: n=2; for Duration of action: last time point with an effect on BP still observed
Procedure, shortened: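 Values are % change from a 1 h pre-dose baseline in systolic pressure, tracked by telemetry for up to 48 hours after a single 0.1 mg/kg subcutaneous dose. Rats (Sprague Dawley, n=2 per peptide) carried aortic catheters and recovered at least 10 days post-surgery; duration of action marks the last time point still showing an effect.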

[6] = Pharmacokinetics in male Sprague Dawley rats after subcutaneous administration; assay type: in vivo; conditions: plasma, rat, IV, 0.05 mg/kg

EC50 [1]	Emax (% I) [2]	EC50 [2]	remaining at 2 h [3]	Buffer stability pH 7.4 % purity loss [4]	AUC(0-t) [6]	half-life [6]	Buffer stability pH 4.5 % purity loss ([4]; 100 mM acetate buffer pH 4.5)	SMILES	Systolic blood pressure (Mean) % change from baseline, 8 h [5]	Systolic blood pressure (Mean) % change from baseline, 12 h [5]	Systolic blood pressure (Mean) % change from baseline, 24 h [5]	Duration of action [5]
0.29 nM	9 % I	> 250 nM	67%	0.0/Not Tested %	5040 ng·h/mL	7.5 h		CC[C@H](C)[C@H](NC(C)=O)C(=O)N[C@H](C(=O)N[C@@H](CC(C)C)C(=O)N[C@@H](CO)C(=O)N[C@@H](CC(C)C)C(=O)N[C@@H](CC(=O)O)C(=O)N[C@@H](C(=O)N1CCC[C@H]1C(=O)N[C@H](C(=O)N[C@@H](CCCCN)C(=O)N[C@@H](CC(C)C)C(=O)N[C@@H](CCCCNC(=O)CC[C@H](NC(=O)CCCCCCCCCCCCCCCCC(=O)O)C(=O)O)C(=O)N[C@@H](CCCCN)C(=O)N[C@H](C(=O)N[C@@H](CC(C)C)C(=O)N[C@@H](CC(C)C)C(=O)N[C@@H](CCC(=O)O)C(=O)N[C@@H](CCC(N)=O)C(=O)N[C@@H](CCC(=O)O)C(=O)N[C@@H](CCCCN)C(=O)N[C@@H](CCC(N)=O)C(=O)N[C@@H](CCCCN)C(=O)N[C@@H](C)C(=O)N[C@@H](CCC(N)=O)C(=O)N[C@@H](CCCNC(=N)N)C(=O)N[C@@H](CCC(=O)O)C(=O)N[C@@H](CCC(N)=O)C(=O)N[C@@H](C)C(=O)N[C@@H](CCC(=O)O)C(=O)N[C@H](C(=O)N[C@@H](CC(N)=O)C(=O)NC(C)(C)C(=O)N[C@@H](CCC(N)=O)C(=O)N[C@H](C(=O)N[C@@H](CC(C)C)C(=O)N[C@@H](C)C(=O)N[C@@H](CCC(N)=O)C(=O)N[C@H](C(N)=O)C(C)C)[C@@H](C)CC)[C@@H](C)O)[C@@H](C)CC)[C@@H](C)CC)C(C)C)C(C)C [compound 189] (Ac-IVLSLD[dV]PIKLK([γGlu-C18 diacid])KILLEQEKQKAQREQAETN[Aib]QILAQV-NH2)	−27%	−25%	−13%	>24 h
			72%	0.0/0.0 ^ %	7780 ng·h/mL	8.4 h	0.0/0.0 ^ %	CC[C@H](C)[C@H](NC(C)=O)C(=O)N[C@H](C(=O)N[C@@H](CC(C)C)C(=O)N[C@@H](CO)C(=O)N[C@@H](CC(C)C)C(=O)N[C@@H](CC(=O)O)C(=O)N[C@@H](C(=O)N1CCC[C@H]1C(=O)N[C@H](C(=O)N[C@@H](CCCCN)C(=O)N[C@@H](CC(C)C)C(=O)N[C@@H](CCCCNC(=O)CC[C@H](NC(=O)CCCCCCCCCCCCCCCCCCC(=O)O)C(=O)O)C(=O)N[C@@H](CCCCN)C(=O)N[C@H](C(=O)N[C@@H](CC(C)C)C(=O)N[C@@H](CC(C)C)C(=O)N[C@@H](CCC(=O)O)C(=O)N[C@@H](CCC(N)=O)C(=O)N[C@@H](CCC(=O)O)C(=O)N[C@@H](CCCCN)C(=O)N[C@@H](CCC(N)=O)C(=O)N[C@@H](CCCCN)C(=O)N[C@@H](CCCCN)C(=O)N[C@@H](CCC(N)=O)C(=O)N[C@@H](CCCNC(=N)N)C(=O)N[C@@H](CCC(=O)O)C(=O)N[C@@H](CCC(N)=O)C(=O)N[C@@H](C)C(=O)N[C@@H](CCC(=O)O)C(=O)N[C@H](C(=O)N[C@@H](CC(N)=O)C(=O)NC1(C(=O)N[C@@H](CCC(N)=O)C(=O)N[C@H](C(=O)N[C@@H](CC(C)C)C(=O)N[C@@H](C)C(=O)N[C@@H](CCC(N)=O)C(=O)N[C@H](C(N)=O)C(C)C)[C@@H](C)CC)CCOCC1)[C@@H](C)O)[C@@H](C)CC)[C@@H](C)CC)C(C)C)C(C)C [compound 210] (Ac-IVLSLD[dV]PIKLK([γGlu-C20 diacid])KILLEQEKQKKQREQAETN[Thp]QILAQV-NH2)	−13%	−13%	−6%	>24 h
0.54 nM	7 % I	> 250 nM	75%	3.8/Not Tested %	8250 ng·h/mL	15 h		CC[C@H](C)[C@H](NC(C)=O)C(=O)N[C@H](C(=O)N[C@@H](CC(C)C)C(=O)N[C@@H](CO)C(=O)N[C@@H](CC(C)C)C(=O)N[C@@H](CC(=O)O)C(=O)N[C@@H](C(=O)N1CCC[C@H]1C(=O)N[C@H](C(=O)N[C@@H](CCCCN)C(=O)N[C@@H](CC(C)C)C(=O)N[C@@H](CCCCNC(=O)COCCOCCNC(=O)COCCOCCNC(=O)CC[C@H](NC(=O)CCCCCCCCCCCCCCCCCCC(=O)O)C(=O)O)C(=O)N[C@@H](CCCCN)C(=O)N[C@H](C(=O)N[C@@H](CC(C)C)C(=O)N[C@@H](CC(C)C)C(=O)N[C@@H](CCC(=O)O)C(=O)N[C@@H](CCC(N)=O)C(=O)N[C@@H](CCC(=O)O)C(=O)N[C@@H](CCCCN)C(=O)N[C@@H](CCC(N)=O)C(=O)N[C@@H](CCCCN)C(=O)N[C@@H](CCC(=O)O)C(=O)N[C@@H](CCC(N)=O)C(=O)N[C@@H](CCCNC(=N)N)C(=O)N[C@@H](CCC(=O)O)C(=O)N[C@@H](CCC(N)=O)C(=O)N[C@@H](C)C(=O)N[C@@H](CCC(=O)O)C(=O)N[C@H](C(=O)N[C@@H](CC(N)=O)C(=O)NC(C)(C)C(=O)N[C@@H](CCC(N)=O)C(=O)N[C@H](C(=O)N[C@@H](CC(C)C)C(=O)N[C@@H](C)C(=O)N[C@@H](CCC(N)=O)C(=O)N[C@H](C(N)=O)C(C)C)[C@@H](C)CC)[C@@H](C)O)[C@@H](C)CC)[C@@H](C)CC)C(C)C)C(C)C [compound 236] (Ac-IVLSLD[dV]PIKLK([AEEA-AEEA-γGlu-C20 diacid])KILLEQEKQKEQREQAETN[Aib]QILAQV-NH2)				
0.56 nM	7 % I	> 250 nM	68%	2.0/Not Tested %	6210 ng·h/mL	15 h		CC[C@H](C)[C@H](NC(C)=O)C(=O)N[C@H](C(=O)N[C@@H](CC(C)C)C(=O)N[C@@H](CO)C(=O)N[C@@H](CC(C)C)C(=O)N[C@@H](CC(=O)O)C(=O)N[C@@H](C(=O)N1CCC[C@H]1C(=O)N[C@H](C(=O)N[C@@H](CCCCN)C(=O)N[C@@H](CC(C)C)C(=O)N[C@@H](CCCCNC(=O)CC[C@H](NC(=O)CC[C@H](NC(=O)CCCCCCCCCCCCCCCCCCC(=O)O)C(=O)O)C(=O)O)C(=O)N[C@@H](CCCCN)C(=O)N[C@H](C(=O)N[C@@H](CC(C)C)C(=O)N[C@@H](CC(C)C)C(=O)N[C@@H](CCC(=O)O)C(=O)N[C@@H](CCC(N)=O)C(=O)N[C@@H](CCC(=O)O)C(=O)N[C@@H](CCCCN)C(=O)N[C@@H](CCC(N)=O)C(=O)N[C@@H](CCCCN)C(=O)N[C@@H](CCC(=O)O)C(=O)N[C@@H](CCC(N)=O)C(=O)N[C@@H](CCCNC(=N)N)C(=O)N[C@@H](CCC(=O)O)C(=O)N[C@@H](CCC(N)=O)C(=O)N[C@@H](C)C(=O)N[C@@H](CCC(=O)O)C(=O)N[C@H](C(=O)N[C@@H](CC(N)=O)C(=O)NC(C)(C)C(=O)N[C@@H](CCC(N)=O)C(=O)N[C@H](C(=O)N[C@@H](CC(C)C)C(=O)N[C@@H](C)C(=O)N[C@@H](CCC(N)=O)C(=O)N[C@H](C(N)=O)C(C)C)[C@@H](C)CC)[C@@H](C)O)[C@@H](C)CC)[C@@H](C)CC)C(C)C)C(C)C [compound 241] (Ac-IVLSLD[dV]PIKLK([γGlu-γGlu-C20 diacid])KILLEQEKQKEQREQAETN[Aib]QILAQV-NH2)				
